Results: patent publication US12054466B2, “Compounds for the treatment of clostridium difficile infection” (University of Notre Dame du Lac, priority 2016, dated 2024)
≈ marks a conversion by molar mass, not a printed value. Entries after “also recorded” stand apart in the source; their conditions may differ. Read-outs that look alike come from different tables or passages of the source.

Experiments:
C. difficile [1] = experiment: MIC against C. difficile (strain not named; 14 strains overall); assay type: cell-based, Clostridium difficile
C. difficile ATCC43598 = experiment: MIC, broth microdilution; assay type: cell-based; details: Clostridioides difficile
C. difficile ATCC43255 = experiment: MIC, broth microdilution; assay type: cell-based; details: Clostridioides difficile
C. difficile BAA-1804 = experiment: MIC, broth microdilution; assay type: cell-based; details: Clostridioides difficile
C. difficile BAA-1803 = experiment: MIC, broth microdilution; assay type: cell-based; details: Clostridioides difficile
C. difficile BAA-1801 = experiment: MIC, broth microdilution; assay type: cell-based; details: Clostridioides difficile
C. difficile BAA-1812 = experiment: MIC, broth microdilution; assay type: cell-based; details: Clostridioides difficile
C. difficile BAA-1814 = experiment: MIC, broth microdilution; assay type: cell-based; details: Clostridioides difficile
C. difficile NR49294 = experiment: MIC, broth microdilution; assay type: cell-based; details: Clostridioides difficile
C. difficile NR49318 = experiment: MIC, broth microdilution; assay type: cell-based; details: Clostridioides difficile
C. difficile NR49292 = experiment: MIC, broth microdilution; assay type: cell-based; details: Clostridioides difficile
[2] = test system: Bacteroides fragilis HM-709; experiment: MIC against common gut bacteria; assay type: cell-based; details: Bacteroides fragilis, HM709
Bacteroides fragilis = experiment: MIC against common gut bacteria; assay type: cell-based
Bacteroides ovatus = experiment: MIC against common gut bacteria; assay type: cell-based
Bacteroides vulgatus = experiment: MIC against common gut bacteria; assay type: cell-based; details: Phocaeicola vulgatus
Bacteroides eggerthii = experiment: MIC against common gut bacteria; assay type: cell-based
Bacteroides caccae = experiment: MIC against common gut bacteria; assay type: cell-based
[3] = test system: Bifidobacterium longum HM-846; experiment: MIC against common gut bacteria; assay type: cell-based; details: Bifidobacterium longum, HM846
[4] = test system: Corynebacterium sp. HM-784; experiment: MIC against common gut bacteria; assay type: cell-based; details: Corynebacterium, SP.HM784
Method: Minimally-inhibitory concentrations. MICs for C. difficile strains and the common gut bacteria were determined using broth microdilution techniques as reported earlier using brucella broth supplemented with hemin and vitamin K or supplemented BHIS broth (Babakhani et al., J Antimicrob Chemother 2013, 68(3), 515). Lactobacillus MRS broth was used for lactobacillus strains. […] All incubations unless specified otherwise were carried out at 24 or 48 h at 37° C. in an anaerobic chamber (Whitley DG250 workstation, Microbiology International, Frederick, MD). Corynebacterium and lactobacillus species were incubated aerobically.

[5] = test system: Fusobacterium nucleatum HM-992; experiment: MIC against common gut bacteria; assay type: cell-based; details: Fusobacterium nucleatum, HM992
[6] = test system: Lactobacillus reuteri HM-102; experiment: MIC against common gut bacteria; assay type: cell-based; details: Limosilactobacillus reuteri, HM102
[7] = test system: Lactobacillus gasseri HM-644; experiment: MIC against common gut bacteria; assay type: cell-based; details: Lactobacillus gasseri, HM644
Veillonella sp. HM-49 = experiment: MIC against common gut bacteria; assay type: cell-based; details: Veillonella, SP.HM49
[8] = test system: C. difficile strain ATCC 43255; experiment: Mouse model of recurrent CDI, second study: fecal cell, spore and toxin evaluation; assay type: in vivo, mice
Method: C. difficile Mouse Model. […] A negative vehicle control will be included. […] This study was conducted in duplicates.
A second study was conducted with oxadiazole 2 given po at 20 or 40 mg/kg for 5 days and vancomycin administered at 50 mg/kg po for 5 days. Fecal samples were collected on days 3, 7, and 10 for C. difficile spore and toxin evaluation.

C. difficile infection = details: patients treated for CDI; cited from earlier work
C. difficile [9] = details: cited from earlier work
[10] = test system: C. difficile strain ATCC 43255; experiment: Mouse model of recurrent CDI, survival; details: po once a day for 5 days; oxadiazole 2 20 mg/kg/day, vancomycin 50 mg/kg/day

## CN[C@H](CC(C)C)C(=O)N[C@H]1C(=O)N[C@@H](CC(N)=O)C(=O)N[C@H]2C(=O)N[C@H]3C(=O)N[C@H](C(=O)N[C@H](C(=O)O)c4cc(O)cc(O)c4-c4cc3ccc4O)[C@H](O)c3ccc(c(Cl)c3)Oc3cc2cc(c3O[C@@H]2O[C@H](CO)[C@@H](O)[C@H](O)[C@H]2O[C@H]2C[C@](C)(N)[C@H](O)[C@H](C)O2)Oc2ccc(cc2Cl)[C@H]1O [vancomycin]
C. difficile [1]
  MIC range in 14 C. difficile strains: 0.25 to 1 µg/mL
C. difficile ATCC43598; ATCC43598, 24 h, read-out: MIC at 24 h
  MIC: 1 µg/mL (≈ 0.69 µM)
C. difficile ATCC43598; ATCC43598, 48 h, read-out: MIC at 48 h
  MIC: 1 µg/mL (≈ 0.69 µM)
C. difficile ATCC43255; ATCC43255, 24 h, read-out: MIC at 24 h
  MIC: 0.5 µg/mL (≈ 0.345 µM)
C. difficile ATCC43255; ATCC43255, 48 h, read-out: MIC at 48 h
  MIC: 0.5 µg/mL (≈ 0.345 µM)
C. difficile BAA-1804; BAA1804, 24 h, read-out: MIC at 24 h
  MIC: 1 µg/mL (≈ 0.69 µM)
C. difficile BAA-1804; BAA1804, 48 h, read-out: MIC at 48 h
  MIC: 1 µg/mL (≈ 0.69 µM)
C. difficile BAA-1803; BAA1803, 24 h, read-out: MIC at 24 h
  MIC: 1 µg/mL (≈ 0.69 µM)
C. difficile BAA-1803; BAA1803, 48 h, read-out: MIC at 48 h
  MIC: 2 µg/mL (≈ 1.38 µM)
C. difficile BAA-1801; BAA1801, 24 h, read-out: MIC at 24 h
  MIC: 0.25 µg/mL (≈ 0.173 µM)
C. difficile BAA-1801; BAA1801, 48 h, read-out: MIC at 48 h
  MIC: 0.25 µg/mL (≈ 0.173 µM)
C. difficile BAA-1812; BAA1812, 24 h, read-out: MIC at 24 h
  MIC: 0.25 µg/mL (≈ 0.173 µM)
C. difficile BAA-1812; BAA1812, 48 h, read-out: MIC at 48 h
  MIC: 0.5 µg/mL (≈ 0.345 µM)
C. difficile BAA-1814; BAA1814, 24 h, read-out: MIC at 24 h
  MIC: 0.5 µg/mL (≈ 0.345 µM)
C. difficile BAA-1814; BAA1814, 48 h, read-out: MIC at 48 h
  MIC: 0.5 µg/mL (≈ 0.345 µM)
C. difficile NR49294; NR49294, 24 h, read-out: MIC at 24 h
  MIC: 0.25 µg/mL (≈ 0.173 µM)
C. difficile NR49294; NR49294, 48 h, read-out: MIC at 48 h
  MIC: 0.25 µg/mL (≈ 0.173 µM)
C. difficile NR49318; NR49318, 24 h, read-out: MIC at 24 h
  MIC: 0.25 µg/mL (≈ 0.173 µM)
C. difficile NR49318; NR49318, 48 h, read-out: MIC at 48 h
  MIC: 0.25 µg/mL (≈ 0.173 µM)
C. difficile NR49292; NR49292, 24 h, read-out: MIC at 24 h
  MIC: 0.25 µg/mL (≈ 0.173 µM)
C. difficile NR49292; NR49292, 48 h, read-out: MIC at 48 h
  MIC: 0.25 µg/mL (≈ 0.173 µM)
[2]
  MIC: 16 µg/mL (≈ 11 µM)
Bacteroides fragilis
  MIC: 16 µg/mL (≈ 11 µM)
Bacteroides ovatus
  MIC: 16 µg/mL (≈ 11 µM)
Bacteroides vulgatus
  MIC: 16 µg/mL (≈ 11 µM)
Bacteroides eggerthii
  MIC: 8 µg/mL (≈ 5.52 µM)
Bacteroides caccae
  MIC: 32 µg/mL (≈ 22.1 µM)
[3]
  MIC: 0.25 µg/mL (≈ 0.173 µM)
[4]
  MIC: 0.25 µg/mL (≈ 0.173 µM)
[5]
  MIC: 0.25 µg/mL (≈ 0.173 µM)
[6]
  MIC: > 32 µg/mL
[7]
  MIC: 1 µg/mL (≈ 0.69 µM)
Veillonella sp. HM-49
  MIC: > 32 µg/mL
[8]; 50 mg/kg vancomycin, in words
  Spores in feces: spores were observed on day 10; also recorded: no spores were observed until day 10
[8]; dose of compound 2 not stated
  Reduction in vegetative cells in feces by day 10: 2 log
[8]; vancomycin 50 mg/kg po for 5 days
  Total cell counts in feces, reduction on day 10 compared to day 3: 1.02 log
[8]; vancomycin group, day 10, in words
  Toxin in feces: toxin was observed
C. difficile infection
  Patients with recurrence of the infection: About 25%
C. difficile [9]; at 8× or 80× MIC
  Activity against C. difficile spores: not active
C. difficile [9]; at 8×MIC
  Inhibition of toxin production: Neither vancomycin nor metronidazole inhibit toxin production
[10]
  Survival after 25 days: 45%
